How the values were obtained:
[1] = test system: HCMV entry; assay: Virus entry immunofluorescence assay for pp65; format: cell-based; details: emetine 75 nM, GCV 10 μM, CpG 2006 10 μM; added 24 h prior to infection
Experimental: Immunofluorescence. […] Compounds were diluted in serum-free medium and added to HFFs seeded on chamber slides 24 h prior to infection. After infection and treatment, cells were fixed, permeabilized, and air-dried. Cells were then incubated with mouse monoclonal anti-pp65 antibody at 37° C. in humidified chambers for 1 h, washed three times with 0.1% Tween 20 in PBS (PBST), incubated with rhodamine conjugated anti-mouse IgG (Sigma Chemical Co) at 37° C. in humidified chambers for 1 h, and washed with PBST (0.1% Tween 20). A drop of mount oil containing DAPI (4,6-diamidino-2-phenylindole) (Santa Cruz) was added to the slides before visualization with a Nikon Eclipse E-800 fluorescence microscope.

[2] = test system: pp28-luciferase HCMV Towne; assay: microbe, parasite or virus in culture; format: cell-based, human cytomegalovirus (HCMV); details: HFFs 0.5-2 million cells/plate; emetine 75 nM, GCV 5 μM
Source text: A GCV-resistant pp28-luciferase HCMV strain, with a C607Y mutation in UL97 was also used. The recombinant viruses express luciferase under the control of the late CMV gene promoter, pp28. […] The recombinant viruses provide a highly-sensitive and reproducible reporter system which correlates with the classic plaque reduction assay. […] Human herpes virus strains were: luciferase HSV1-KOS/Dlux/oriS and clinical isolates of HSV2.
Cell culture, virus infection and anti-viral assays. […] Infection with HCMV or HSV was performed in HFFs, and infection with mouse CMV was performed in MEFs. For HCMV, cells were seeded in either a 96-well plate or 100 mm culture plates (Corning Costar, Sigma Aldrich) at 0.5 or 2 million cells/plate. Following 90 minute adsorption, media was removed and cells were washed with PBS. Media containing 4% FBS and compounds were added to each well. Infected treated HFFs were collected at 72 hpi and lysates were assayed for luciferase activity using a luciferase assay kit (Promega, Madison, WI) on GloMax®-Multi+Detection System (Promega). In second cycle assays, supernatants were collected from all conditions of the first cycle at 96 hpi and used for infection of fresh HFFs in 96-well-plates. […] For HSV1-KOS/Dlux/oriS, a luciferase assay was performed at 24 hpi. Plaque assays were performed with clinical isolates of HSV2 and HCMV Towne. […] Following virus adsorption (60 min and 90 min for HSV and HCMV, respectively), virus was aspirated, and DMEM containing 4% fetal bovine serum (FBS) with (for HSV) or without (for HCMV) 0.5% carboxymethyl-cellulose, were added with the compounds at indicated concentrations into triplicate wells. After incubation at 37° C. for 10 days (for HCMV) or 2 days (for HSV), the overlay was removed and plaques were counted after crystal violet staining.

[3] = test system: HCMV; assay: Generation of drug resistant virus; format: cell-based, human cytomegalovirus (HCMV); details: 5 passages, two fold increases of concentration
Experimental: Generation of drug resistant virus. Screening of drug resistant virus was performed as reported. Two million cells were plated on a 6-well plate and infected with HCMV (MOI 0.05). […] The cells were maintained in DMEM with 4% FBS until plaques were observed. The supernatants from these plates were used to infect fresh HFFs in a 6-well plate and each time drug concentration was increased by two fold. […] DNA extracted from supernatants collected at the last stage was used for UL97 sequencing.

[4] = test system: MDM2-IE2 interaction; assay: Co-immunoprecipitation of MDM2 and IE2 in transfected HEK293 cells; format: cell-based; details: HEK293 cells transfected with IE1/2; emetine 75 nM or GCV 5 μM, 4 h
Experimental: Transient transfections. HEK-293 cells seeded into 10 cm petri dishes were transfected with HCMV plasmid encoding IE1 and IE2 (pRL45) plasmid, 1 μg/dish, using Lipofectamine 2000 in serum free medium. After 6 h, 10% FBS containing media was added along with 10 μM of MG132. […] Cells were then harvested to prepare lysates for IP.
Co-immunoprecipitation (IP) and immunoblotting. Non-infected, infected or emetine-treated HFFs were treated with MG132 (10 μM) for 12 h. Cells were harvested after 24 hpi and lysed with IP buffer containing 150 mM NaCl, 50 mM Tris pH 7.5, 2 mM EDTA, 0.5% TritonX-100 and 0.5% NP-40-40. 1 mg of lysate was precleared with bead slurry for 30 min. The precleared lysates were incubated with anti-MDM2 (2 μg) antibody overnight. The antibody complexes were isolated using protein A/G beads (Santa Cruz), washed three times with 50% IP buffer. The immunoprecipitate—protein A/G beads were boiled in SDS sample buffer, and the supernatant was analyzed on SDS-PAGE gels after immunoblotting as described previously. […] Reverse IPs were performed by pulling down the precleared lysates with either anti-p53 antibody or anti-RPS14 antibody and detected with MDM2. […] In other experiments, transfected or treated HEK293 cell lysates were pulled-down with anti-IE2 antibody and detected with anti-MDM2 antibody and vice-versa for reverse IP.

In the case of Nc1nc(O)c2ncn(COC(CO)CO)c2n1 [GCV, Ganciclovir], the “inhibition of viral entry” value [1] is reported as “neither emetine nor GCV inhibited viral entry”, the “HCMV inhibition in relation to cell density at time of infection” value [2] is reported as “inhibited HCMV replication irrespective of cell density” and the “selection of resistant virus with increasing drug concentration” value [3] is reported as “did select for resistant mutants”. For the same molecule, the “interaction of MDM2 and IE2” value [4] was “no effect”.

Reference: US12208093B2 (THE JOHNS HOPKINS UNIVERSITY, priority 2016, dated 2025)
